{
  "source": "PubChem BioAssay (NCI)",
  "test_in_all_cases": "growth of human tumour cells (NCI), 48 h",
  "key": {"HOP-92 NSCLC": {"tested_on": "HOP-92 NSCLC"}, "HT29 colon": {"tested_on": "HT29 colon"}, "SF-539 CNS": {"tested_on": "SF-539 CNS"}, "NCI-H23 lung": {"tested_on": "NCI-H23 lung"}, "HL-60(TB) leukemia": {"tested_on": "HL-60(TB) leukemia"}, "SNB-75 CNS": {"tested_on": "SNB-75 CNS"}, "LOX IMVI melanoma": {"tested_on": "LOX IMVI melanoma"}, "MDA-MB-231 breast": {"tested_on": "MDA-MB-231 breast"}, "NCI-H226 lung": {"tested_on": "NCI-H226 lung"}, "HOP-62 NSCLC": {"tested_on": "HOP-62 NSCLC"}, "SN12C renal": {"tested_on": "SN12C renal"}, "SF-295 CNS": {"tested_on": "SF-295 CNS"}, "HCT-15 colon": {"tested_on": "HCT-15 colon"}, "OVCAR-5 ovarian": {"tested_on": "OVCAR-5 ovarian"}, "SNB-19 CNS": {"tested_on": "SNB-19 CNS"}, "HS 578T breast": {"tested_on": "HS 578T breast"}, "NCI-H522 lung": {"tested_on": "NCI-H522 lung"}, "PC-3 prostate": {"tested_on": "PC-3 prostate"}, "NCI-H460 lung": {"tested_on": "NCI-H460 lung"}, "786-0 renal": {"tested_on": "786-0 renal"}, "UACC-257 melanoma": {"tested_on": "UACC-257 melanoma"}, "RPMI-8226 leukemia": {"tested_on": "RPMI-8226 leukemia"}, "MOLT-4 leukemia": {"tested_on": "MOLT-4 leukemia"}, "SK-MEL-2 melanoma": {"tested_on": "SK-MEL-2 melanoma"}, "M14 melanoma": {"tested_on": "M14 melanoma"}, "SK-OV-3 ovarian": {"tested_on": "SK-OV-3 ovarian"}, "COLO 205 colon": {"tested_on": "COLO 205 colon"}, "K-562 leukemia": {"tested_on": "K-562 leukemia"}, "ACHN renal": {"tested_on": "ACHN renal"}, "UACC-62 melanoma": {"tested_on": "UACC-62 melanoma"}, "OVCAR-8 ovarian": {"tested_on": "OVCAR-8 ovarian"}, "OVCAR-4 ovarian": {"tested_on": "OVCAR-4 ovarian"}, "A549 NSCLC": {"tested_on": "A549 NSCLC"}, "EKVX NSCLC": {"tested_on": "EKVX NSCLC"}, "HCT-116 colon": {"tested_on": "HCT-116 colon"}, "MDA-MB-435": {"tested_on": "MDA-MB-435"}, "KM12 colon": {"tested_on": "KM12 colon"}, "TK-10 renal": {"tested_on": "TK-10 renal"}, "U251 CNS": {"tested_on": "U251 CNS"}, "MALME-3M melanoma": {"tested_on": "MALME-3M melanoma"}, "SW-620 colon": {"tested_on": "SW-620 colon"}, "SK-MEL-5 melanoma": {"tested_on": "SK-MEL-5 melanoma"}, "HCC-2998 colon": {"tested_on": "HCC-2998 colon"}, "SR leukemia": {"tested_on": "SR leukemia"}, "BT-549 breast": {"tested_on": "BT-549 breast"}, "OVCAR-3 ovarian": {"tested_on": "OVCAR-3 ovarian"}, "CAKI-1 renal": {"tested_on": "CAKI-1 renal"}, "IGROV1 ovarian": {"tested_on": "IGROV1 ovarian"}, "T-47D breast": {"tested_on": "T-47D breast"}, "SK-MEL-28 melanoma": {"tested_on": "SK-MEL-28 melanoma"}, "UO-31 renal": {"tested_on": "UO-31 renal"}, "SF-268 CNS": {"tested_on": "SF-268 CNS"}, "MCF7 breast": {"tested_on": "MCF7 breast"}, "RXF 393 renal": {"tested_on": "RXF 393 renal"}, "CCRF-CEM leukemia": {"tested_on": "CCRF-CEM leukemia"}, "MDA-N": {"tested_on": "MDA-N"}, "DU-145 prostate": {"tested_on": "DU-145 prostate"}, "NCI/ADR-RES ovarian": {"tested_on": "NCI/ADR-RES ovarian"}, "A498 renal": {"tested_on": "A498 renal"}},
  "note": "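Step 1: Grow cells in 96-well plates. Step 2: Expose to compound for 48 hours at 5 concentrations. Step 3: Interpolate endpoints linearly; if unreached, use highest concentration. TGI denotes the concentration required for complete inhibition of growth.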",
  "data": [
    {"smiles": "COc1ccc2nc3cc([N+](=O)[O-])ccc3c(NNc3ccc([N+](=O)[O-])cc3)c2c1", "values": [
      {"measurement": "TGI", "setting": "HOP-92 NSCLC", "value": 67.7, "unit": "µM"},
      {"measurement": "TGI", "setting": "HT29 colon", "value": "> 63.9", "unit": "µM"},
      {"measurement": "TGI", "setting": "SF-539 CNS", "value": "> 100", "unit": "µM"},
      {"measurement": "TGI", "setting": "NCI-H23 lung", "value": "> 100", "unit": "µM"},
      {"measurement": "TGI", "setting": "HL-60(TB) leukemia", "value": 54.2, "unit": "µM"},
      {"measurement": "TGI", "setting": "SNB-75 CNS", "value": "> 100", "unit": "µM"},
      {"measurement": "TGI", "setting": "LOX IMVI melanoma", "value": "> 100", "unit": "µM"},
      {"measurement": "TGI", "setting": "MDA-MB-231 breast", "value": "> 91.6", "unit": "µM"},
      {"measurement": "TGI", "setting": "NCI-H226 lung", "value": "> 56.4", "unit": "µM"},
      {"measurement": "TGI", "setting": "HOP-62 NSCLC", "value": "> 100", "unit": "µM"},
      {"measurement": "TGI", "setting": "SN12C renal", "value": "> 100", "unit": "µM"},
      {"measurement": "TGI", "setting": "SF-295 CNS", "value": "> 100", "unit": "µM"},
      {"measurement": "TGI", "setting": "HCT-15 colon", "value": "> 100", "unit": "µM"},
      {"measurement": "TGI", "setting": "OVCAR-5 ovarian", "value": "> 100", "unit": "µM"},
      {"measurement": "TGI", "setting": "SNB-19 CNS", "value": "> 76.8", "unit": "µM"},
      {"measurement": "TGI", "setting": "HS 578T breast", "value": "> 100", "unit": "µM"},
      {"measurement": "TGI", "setting": "NCI-H522 lung", "value": "> 100", "unit": "µM"},
      {"measurement": "TGI", "setting": "PC-3 prostate", "value": "> 100", "unit": "µM"},
      {"measurement": "TGI", "setting": "NCI-H460 lung", "value": "> 59.7", "unit": "µM"},
      {"measurement": "TGI", "setting": "786-0 renal", "value": "> 100", "unit": "µM"},
      {"measurement": "TGI", "setting": "UACC-257 melanoma", "value": 16, "unit": "µM"},
      {"measurement": "TGI", "setting": "RPMI-8226 leukemia", "value": "> 71.5", "unit": "µM"},
      {"measurement": "TGI", "setting": "MOLT-4 leukemia", "value": "> 100", "unit": "µM"},
      {"measurement": "TGI", "setting": "SK-MEL-2 melanoma", "value": "> 96.2", "unit": "µM"},
      {"measurement": "TGI", "setting": "M14 melanoma", "value": "> 100", "unit": "µM"},
      {"measurement": "TGI", "setting": "SK-OV-3 ovarian", "value": "> 100", "unit": "µM"},
      {"measurement": "TGI", "setting": "COLO 205 colon", "value": "> 100", "unit": "µM"},
      {"measurement": "TGI", "setting": "K-562 leukemia", "value": "> 100", "unit": "µM"},
      {"measurement": "TGI", "setting": "ACHN renal", "value": "> 100", "unit": "µM"},
      {"measurement": "TGI", "setting": "UACC-62 melanoma", "value": "> 50.7", "unit": "µM"},
      {"measurement": "TGI", "setting": "OVCAR-8 ovarian", "value": "> 100", "unit": "µM"},
      {"measurement": "TGI", "setting": "OVCAR-4 ovarian", "value": "> 100", "unit": "µM"},
      {"measurement": "TGI", "setting": "A549 NSCLC", "value": "> 100", "unit": "µM"},
      {"measurement": "TGI", "setting": "EKVX NSCLC", "value": "> 100", "unit": "µM"},
      {"measurement": "TGI", "setting": "HCT-116 colon", "value": "> 100", "unit": "µM"},
      {"measurement": "TGI", "setting": "MDA-MB-435", "value": "> 100", "unit": "µM"},
      {"measurement": "TGI", "setting": "KM12 colon", "value": "> 100", "unit": "µM"},
      {"measurement": "TGI", "setting": "TK-10 renal", "value": "> 24.2", "unit": "µM"},
      {"measurement": "TGI", "setting": "U251 CNS", "value": "> 93.7", "unit": "µM"},
      {"measurement": "TGI", "setting": "MALME-3M melanoma", "value": "> 92.5", "unit": "µM"},
      {"measurement": "TGI", "setting": "SW-620 colon", "value": "> 64.7", "unit": "µM"},
      {"measurement": "TGI", "setting": "SK-MEL-5 melanoma", "value": 61.4, "unit": "µM"},
      {"measurement": "TGI", "setting": "HCC-2998 colon", "value": 69.4, "unit": "µM"},
      {"measurement": "TGI", "setting": "SR leukemia", "value": "> 69", "unit": "µM"},
      {"measurement": "TGI", "setting": "BT-549 breast", "value": "> 100", "unit": "µM"},
      {"measurement": "TGI", "setting": "OVCAR-3 ovarian", "value": "> 100", "unit": "µM"},
      {"measurement": "TGI", "setting": "CAKI-1 renal", "value": 29.6, "unit": "µM"},
      {"measurement": "TGI", "setting": "IGROV1 ovarian", "value": "> 59", "unit": "µM"},
      {"measurement": "TGI", "setting": "T-47D breast", "value": "> 100", "unit": "µM"},
      {"measurement": "TGI", "setting": "SK-MEL-28 melanoma", "value": "> 100", "unit": "µM"},
      {"measurement": "TGI", "setting": "UO-31 renal", "value": "> 100", "unit": "µM"},
      {"measurement": "TGI", "setting": "SF-268 CNS", "value": "> 100", "unit": "µM"},
      {"measurement": "TGI", "setting": "MCF7 breast", "value": "> 100", "unit": "µM"},
      {"measurement": "TGI", "setting": "RXF 393 renal", "value": "> 100", "unit": "µM"},
      {"measurement": "TGI", "setting": "CCRF-CEM leukemia", "value": 98.6, "unit": "µM"},
      {"measurement": "TGI", "setting": "MDA-N", "value": "> 100", "unit": "µM"},
      {"measurement": "TGI", "setting": "DU-145 prostate", "value": "> 100", "unit": "µM"},
      {"measurement": "TGI", "setting": "NCI/ADR-RES ovarian", "value": "> 100", "unit": "µM"},
      {"measurement": "TGI", "setting": "A498 renal", "value": 0.382, "unit": "µM"}
    ]}
  ]
}
